Laboratory results: paper PMC4977052, “On the Utility of ToxCast™ and ToxPi as Methods for Identifying New Obesogens” (Environmental Health Perspectives, 2016)
Where two headings read alike, the source gives them in different places.

Legend:
PPARγ [1] = settings: NA = not active, cited from earlier work
SREBP = system: SREBP; parameters: method as in Knudsen et al. 2011; settings: ToxCast Phase I 2011 release; NA = not active; ref Knudsen et al. 2011; read-out: ATGC SREBP AC50; cited from earlier work
PPRE = system: PPRE; parameters: method as in Knudsen et al. 2011; settings: ToxCast Phase I 2011 release; NA = not active; ref Knudsen et al. 2011; read-out: ATGC PPRE AC50; cited from earlier work
3T3-L1 preadipocytes [2] = experiment: 3T3-L1 adipogenesis assay (lipid accumulation, adipogenic gene expression); format: cell-based; settings: 0.02-20 μM, 5 days after MDI induction
Summary of the method: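 After 2-day MDI induction with biotin and pantothenate, 3T3-L1 cells were treated 5 days with chemicals at 0.02–20 μM (0.1% DMSO; 10 μM if toxic). Lipid read as Nile red/Hoechst fluorescence ratio; adipogenic genes by QPCR, 2^ΔΔCt versus 36b4, normalized to DMSO.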

GAL4-mPPARγ = biological target: T1, GAL4-mPPARγ (Mus musculus, UniProt P37238); experiment: GAL4-mPPARγ activation, transient transfection luciferase reporter in COS7 cells; format: cell-based; settings: for Activation COS7 (result in words), ToxCast PPARγ list: PPARγ activation or antagonism assays (Table 1, Table S6)
T1 construct: expressed in transfected cells; host or cells: COS7
T1 sequence (P37238 with tags, fused parts or gaps limits assumed): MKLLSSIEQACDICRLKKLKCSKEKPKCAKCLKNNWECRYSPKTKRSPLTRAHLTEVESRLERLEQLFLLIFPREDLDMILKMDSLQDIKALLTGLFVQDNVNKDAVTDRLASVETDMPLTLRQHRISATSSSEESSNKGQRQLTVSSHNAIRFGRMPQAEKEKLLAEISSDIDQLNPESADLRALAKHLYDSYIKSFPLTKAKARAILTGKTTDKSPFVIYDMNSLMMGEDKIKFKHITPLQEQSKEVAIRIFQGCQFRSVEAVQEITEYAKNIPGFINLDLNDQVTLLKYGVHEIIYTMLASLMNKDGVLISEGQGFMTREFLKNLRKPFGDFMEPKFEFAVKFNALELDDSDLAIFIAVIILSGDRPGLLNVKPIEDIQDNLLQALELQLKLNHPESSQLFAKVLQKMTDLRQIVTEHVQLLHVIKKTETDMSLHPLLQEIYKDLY

LXRβ [3] = system: LXRβ; parameters: method as in Knudsen et al. 2011; settings: ToxCast Phase I 2011 release; NA = not active; ref Knudsen et al. 2011; read-out: NCGC LXR AC50; cited from earlier work
LXRβ [4] = system: LXRβ; parameters: method as in Knudsen et al. 2011; settings: ToxCast Phase I 2011 release; NA = not active; ref Knudsen et al. 2011; read-out: ATGT LXRβ AC50; cited from earlier work
PPARγ [5] = system: PPARγ; parameters: method as in Filer et al. 2014; settings: PPARγ; NA = not active; ref Filer et al. 2014; read-out: NCGC Antag. AC50, 2014 Release; cited from earlier work
LXRα = system: LXRα; parameters: method as in Knudsen et al. 2011; settings: ToxCast Phase I 2011 release; NA = not active; ref Knudsen et al. 2011; read-out: ATGT LXRα AC50; cited from earlier work
RXRα = settings: ToxCast Phase I 2011 release; NA = not active; ref Knudsen et al. 2011; read-out: NCGC RXRα AC50; cited from earlier work
3T3-L1 preadipocytes [6] = system: 3T3-L1 preadipocytes; parameters: method as in earlier work; settings: not tested here; ref Kanayama et al. 2005; Li et al. 2012; Chamorro-García et al. 2012; Masuno et al. 2002; cited from earlier work
PPARγ [7] = settings: PPARγ; NA = not active; ref Filer et al. 2014; read-out: NCGC Agonist AC50, 2014 Release; cited from earlier work
Human PPARγ = settings: PPARγ direct binding, NA = not active, cited from earlier work
C/EBP = system: C/EBP; parameters: method as in Knudsen et al. 2011; settings: ToxCast Phase I 2011 release; NA = not active; ref Knudsen et al. 2011; read-out: ATGC CEBP AC50; cited from earlier work
[8] = ToxCast Phase I 2011 release, ref Knudsen et al. 2011, read-out: ATGT PPARγ AC50
[9] = Cos-7 transient transfection, PPARγ or RXRα activation assays (Table 2)
[10] = PPARγ, ref Filer et al. 2014, read-out: ATG Agonist AC50, 2014 Release
[11] = PPARγ, ref Knudsen et al. 2011, read-out: ATG Agonist AC50, 2011 Release

Row | Compound | AC50 (PPARγ [1]; [8]) [µM] | AC50 (SREBP) [µM] | AC50 (PPRE) [µM] | Adipogenesis 3T3-L1 (result in words) (3T3-L1 preadipocytes [2]) | Activation COS7 (result in words), ToxPi chemicals (GAL4-mPPARγ; [9]) | AC50 (LXRβ [3]) [µM] | also measured
1 | C[Si](Cn1cncn1)(c1ccc(F)cc1)c1ccc(F)cc1 [Flusilazole] | 51 | 20 | 46 | Positive | Inactive |  | 
2 | Cc1nn(C)c(Oc2ccccc2)c1C=NOCc1ccc(C(=O)OC(C)(C)C)cc1 [(Z,E)-Fenpyroximate] |  |  | 0.065 | Negative | Inactive | 6.9 | AC50 (PPARγ [1]; [10]): 2.4 µM; AC50 (PPARγ [1]; [11]): 8.6 µM; AC50 (LXRβ [4]): 8.8 µM; AC50 (PPARγ [5]): 35.9 µM; Activation COS7 (result in words), ToxCast PPARγ list (GAL4-mPPARγ; Cos-7 transient transfection): Inactive; AC50 (LXRα): 4.3 µM
3 | C=CCOC(Cn1ccnc1)c1ccc(Cl)cc1Cl (stereo not shown) [Imazalil] | 73 |  |  | Negative | Inactive |  | AC50 (RXRα): 3.2 µM
4 | [OH-].c1cc[c]([Sn+]([c]2ccccc2)[c]2ccccc2)cc1 [Triphenyltin] |  |  | 0.009 |  | PPARγ activator |  | AC50 (PPARγ [1]; [10]): 0.02 µM; AC50 (PPARγ [1]; [11]): 0.022 µM; Adipogenesis 3T3-L1 (result in words), previously published (3T3-L1 preadipocytes [6]): Positive; AC50 (PPARγ [5]): 0.02 µM; AC50 (PPARγ [7]): 21.6 µM; AC50 (Human PPARγ; ref Filer et al. 2014, read-out: NVS Agonist AC50, 2014 Release): 0.28 µM; AC50 (Human PPARγ; ref Knudsen et al. 2011, read-out: NVS Agonist AC50, 2011 Release): 0.54 µM; Activation of GAL4-PPARγ (text) (GAL4-mPPARγ; COS7, 100 μM through 0.137 μM): activated GAL-PPARγ; Activation COS7 (result in words), ToxCast PPARγ list (GAL4-mPPARγ; Cos-7 transient transfection): PPARγ activator; AC50 (GAL4-mPPARγ; read-out: Activation AC50 (PPARγ activators), Cos-7 transient transfection): 0.02 µM
5 | C#CCC1=C(C)C(OC(=O)C2C(C=C(C)C)C2(C)C)CC1=O (stereo not shown) [Prallethrin] | 44 | 33 | 8.4 | Negative |  | 16.7 | AC50 (C/EBP): 29 µM; Activation COS7 (result in words), ToxPi chemicals (GAL4-mPPARγ): Inactive
6 | C=CCC1=C(C)C(OC(=O)C2C(C=C(C)C)C2(C)C)CC1=O (mixture of isomers) [d-cis,trans-Allethrin] | 36 | 48 | 36 | Negative | Inactive | 11.9 | AC50 (C/EBP): 25 µM
7 | CC(C)(c1ccc(O)cc1)c1ccc(O)cc1 [Bisphenol A] | 27 |  | 37 |  | Inactive |  | Adipogenesis 3T3-L1 (result in words), previously published (3T3-L1 preadipocytes [6]): Positive
